Test results from ChEMBL document CHEMBL2384934, “Discovery of 3-phenyl-1H-5-pyrazolylamine derivatives containing a urea pharmacophore as potent and efficacious inhibitors of FMS-like tyrosine kinase-3 (FLT3)” (Bioorg Med Chem, 2013).

Tests used:
Aurora kinase A = target: T1, Aurora kinase A (Homo sapiens, UniProt O14965); assay: biochemical
T1 sequence (O14965 whole entry): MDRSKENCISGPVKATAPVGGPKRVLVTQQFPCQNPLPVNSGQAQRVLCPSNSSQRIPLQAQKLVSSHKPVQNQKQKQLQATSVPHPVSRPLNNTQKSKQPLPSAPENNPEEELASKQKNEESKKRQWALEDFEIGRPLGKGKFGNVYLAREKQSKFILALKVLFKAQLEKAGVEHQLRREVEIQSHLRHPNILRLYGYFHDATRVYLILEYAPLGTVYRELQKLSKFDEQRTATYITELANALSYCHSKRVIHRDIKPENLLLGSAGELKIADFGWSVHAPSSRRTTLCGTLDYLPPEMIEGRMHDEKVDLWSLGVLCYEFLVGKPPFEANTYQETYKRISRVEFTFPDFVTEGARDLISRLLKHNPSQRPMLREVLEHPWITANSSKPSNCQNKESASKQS
Description: Inhibition of recombinant GST tagged Aurora A kinase (123 to 401) (unknown origin) transfected in insect sf9 cells after 90 mins by wallac counting analysis

MOLM-13 = assay: cells; conditions: Homo sapiens, MOLM-13, 72 h
[1] = target: T2, Receptor-type tyrosine-protein kinase FLT3 (Homo sapiens, UniProt P36888); assay: biochemical; type: cell-based, Sf9
T2 sequence (P36888 whole entry): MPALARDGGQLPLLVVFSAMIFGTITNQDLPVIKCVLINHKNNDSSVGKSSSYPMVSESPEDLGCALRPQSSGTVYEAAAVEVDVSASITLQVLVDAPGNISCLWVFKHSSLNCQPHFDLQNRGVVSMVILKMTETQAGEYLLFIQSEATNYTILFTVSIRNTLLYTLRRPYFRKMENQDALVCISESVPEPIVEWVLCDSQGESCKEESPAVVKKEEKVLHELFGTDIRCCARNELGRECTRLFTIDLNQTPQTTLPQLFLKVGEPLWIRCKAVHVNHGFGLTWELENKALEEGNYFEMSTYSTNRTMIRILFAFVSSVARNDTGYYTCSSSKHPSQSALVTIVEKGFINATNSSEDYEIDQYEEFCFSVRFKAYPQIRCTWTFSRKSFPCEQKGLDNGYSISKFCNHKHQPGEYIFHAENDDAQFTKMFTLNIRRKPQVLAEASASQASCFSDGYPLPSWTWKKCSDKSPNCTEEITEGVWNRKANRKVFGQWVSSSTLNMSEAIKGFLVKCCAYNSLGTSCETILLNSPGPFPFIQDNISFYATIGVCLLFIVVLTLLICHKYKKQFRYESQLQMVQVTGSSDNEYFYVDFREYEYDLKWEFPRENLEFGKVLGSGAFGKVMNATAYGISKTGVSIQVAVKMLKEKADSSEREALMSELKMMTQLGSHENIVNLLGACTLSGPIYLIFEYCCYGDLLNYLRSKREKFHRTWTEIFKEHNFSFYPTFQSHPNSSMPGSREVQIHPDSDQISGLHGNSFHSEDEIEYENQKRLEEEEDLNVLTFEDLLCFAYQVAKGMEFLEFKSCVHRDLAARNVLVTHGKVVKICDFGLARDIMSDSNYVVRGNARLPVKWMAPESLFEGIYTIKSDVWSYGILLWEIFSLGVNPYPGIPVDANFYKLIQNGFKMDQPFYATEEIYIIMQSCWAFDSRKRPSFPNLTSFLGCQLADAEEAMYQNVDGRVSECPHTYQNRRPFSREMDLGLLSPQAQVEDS
Description: Inhibition of wild type GST tagged FLT3 kinase (567 to 993) (unknown origin) transfected in insect sf9 cells after 4 hrs by wallac counting analysis

[2] = target: Vascular endothelial growth factor receptor 2 (Homo sapiens, UniProt P35968); assay: biochemical; type: cell-based, Sf9
Description: Inhibition of recombinant GST tagged VEGFR2 (789 to 1356) (unknown origin) transfected in insect sf9 cells after 120 mins by wallac counting analysis

[3] = Volume of distribution at steady state in Sprague-Dawley rat at 2 mg/kg, iv; type: ADME, organism-based; design: dose 2 mg/kg, route intravenous; conditions: in vivo, read-out: Vdss
[4] = Plasma clearance in Sprague-Dawley rat at 2 mg/kg, iv; type: ADME, organism-based; design: dose 2 mg/kg, route intravenous
[5] = AUC (0 to infinity) in Sprague-Dawley rat at 2 mg/kg, iv; type: ADME, organism-based; design: time infinity, dose 2 mg/kg, route intravenous; conditions: plasma
[6] = Half life in Sprague-Dawley rat at 2 mg/kg, iv; type: ADME, organism-based; design: dose 2 mg/kg, route intravenous; conditions: in vivo
[7] = Oral bioavailability in Sprague-Dawley rat at 10 mg/kg; type: ADME, organism-based; conditions: in vivo

Sequence of Vascular endothelial growth factor receptor 2 (P35968 whole entry): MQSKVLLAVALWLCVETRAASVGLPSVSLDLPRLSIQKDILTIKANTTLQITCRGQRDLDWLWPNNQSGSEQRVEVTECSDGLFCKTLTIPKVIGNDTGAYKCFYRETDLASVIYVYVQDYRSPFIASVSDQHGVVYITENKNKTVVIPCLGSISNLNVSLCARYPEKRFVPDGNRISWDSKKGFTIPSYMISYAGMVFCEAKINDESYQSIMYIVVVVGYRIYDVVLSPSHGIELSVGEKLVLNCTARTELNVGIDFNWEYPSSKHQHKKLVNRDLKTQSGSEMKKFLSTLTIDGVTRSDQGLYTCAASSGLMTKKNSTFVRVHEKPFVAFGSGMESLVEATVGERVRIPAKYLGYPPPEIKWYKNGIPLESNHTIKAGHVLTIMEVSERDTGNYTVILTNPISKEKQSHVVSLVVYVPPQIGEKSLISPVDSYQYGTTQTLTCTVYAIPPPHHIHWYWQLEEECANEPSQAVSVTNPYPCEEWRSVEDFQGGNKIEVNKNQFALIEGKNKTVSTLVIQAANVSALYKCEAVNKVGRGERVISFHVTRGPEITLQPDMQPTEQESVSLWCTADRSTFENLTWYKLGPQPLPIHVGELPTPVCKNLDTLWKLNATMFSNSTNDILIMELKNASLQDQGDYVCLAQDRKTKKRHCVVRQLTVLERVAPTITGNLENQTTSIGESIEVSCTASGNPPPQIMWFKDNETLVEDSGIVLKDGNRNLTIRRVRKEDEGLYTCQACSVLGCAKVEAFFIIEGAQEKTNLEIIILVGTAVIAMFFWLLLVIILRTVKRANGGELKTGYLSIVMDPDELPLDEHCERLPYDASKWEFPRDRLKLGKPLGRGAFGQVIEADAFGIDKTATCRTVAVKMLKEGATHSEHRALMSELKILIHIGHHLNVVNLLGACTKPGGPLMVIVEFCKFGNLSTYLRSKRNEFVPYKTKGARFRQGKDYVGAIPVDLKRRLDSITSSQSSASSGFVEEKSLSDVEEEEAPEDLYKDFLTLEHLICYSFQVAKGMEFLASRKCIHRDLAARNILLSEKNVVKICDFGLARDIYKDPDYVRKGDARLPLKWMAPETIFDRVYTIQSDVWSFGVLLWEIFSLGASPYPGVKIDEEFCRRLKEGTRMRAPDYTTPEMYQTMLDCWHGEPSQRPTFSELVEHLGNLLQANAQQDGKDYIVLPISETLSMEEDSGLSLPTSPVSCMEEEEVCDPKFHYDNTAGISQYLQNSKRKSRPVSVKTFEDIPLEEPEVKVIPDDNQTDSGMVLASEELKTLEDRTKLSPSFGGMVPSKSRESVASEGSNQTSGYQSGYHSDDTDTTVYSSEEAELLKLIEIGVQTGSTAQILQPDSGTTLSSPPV

| Structure (SMILES) | IC50 (Aurora kinase A) | GI50 (MOLM-13) | IC50 [1] | IC50 [2] | Vd [3] | clearance [4] | AUC(0-inf) [5] | half-life [6] | bioavailability [7] |
| --- | --- | --- | --- | --- | --- | --- | --- | --- | --- |
| Cc1nc(Nc2cc(-c3ccc(CNC(=O)Nc4cccc(Cl)c4)cc3)n[nH]2)cc(N2CCNCC2)n1 | 790 nM | 18 nM | 26 nM | 38 nM | – | – | – | – | – |
| CN1CCN(Cc2ccc(C(=O)Nc3cc(-c4ccc(NC(=O)Nc5cc(C(C)(C)C)on5)cc4)n[nH]3)cc2)CC1 | 160 nM | 1 nM | 8 nM | 12 nM | – | – | – | – | – |
| Cc1nc(Nc2cc(-c3ccc(CNC(=O)Nc4cc(C(C)(C)C)on4)cc3)n[nH]2)cc(N2CCN(CCO)CC2)n1 | 490 nM | 5 nM | 95 nM | 50 nM | – | – | – | – | – |
| CCNC(=O)Nc1ccc(-c2cc(NC(=O)c3ccc(N4CCN(C)CC4)cc3)[nH]n2)cc1 | > 1000 nM | 33 nM | 94 nM | 100 nM | – | – | – | – | – |
| CN1CCN(c2ccc(C(=O)Nc3cc(-c4ccc(NC(=O)N5CCCC5)cc4)n[nH]3)cc2)CC1 | > 1000 nM | 37 nM | 70 nM | > 1000 nM | – | – | – | – | – |
| O=C(NCc1ccc(-c2cc(NC(=O)c3ccc(OCCN4CCOCC4)cc3)[nH]n2)cc1)Nc1ccc(Cl)cc1 | > 1000 nM | 3 nM | 16 nM | 71 nM | – | – | – | – | – |
| Cc1cc(NC(=O)NCc2ccc(-c3cc(NC(=O)c4ccc(N5CCN(C)CC5)cc4)[nH]n3)cc2)no1 | 940 nM | 2 nM | 13 nM | 50 nM | – | – | – | – | – |
| CN1CCN(c2ccc(C(=O)Nc3cc(-c4ccc(NC(=O)NC5CC5)cc4)n[nH]3)cc2)CC1 | > 1000 nM | 18 nM | 52 nM | 300 nM | – | – | – | – | – |
| CN1CCN(Cc2ccc(C(=O)Nc3cc(-c4ccc(CNC(=O)Nc5ccccc5)cc4)n[nH]3)cc2)CC1 | > 1000 nM | 4 nM | 22 nM | 82 nM | – | – | – | – | – |
| CN1CCN(c2ccc(C(=O)Nc3cc(-c4ccc(NC(=O)Nc5ccccc5)cc4)n[nH]3)cc2)CC1 | 330 nM | 6 nM | 13 nM | 26 nM | – | – | – | – | – |
| Cc1cc(NC(=O)Nc2ccc(-c3cc(NC(=O)c4ccc(N5CCN(C)CC5)cc4)[nH]n3)cc2C)no1 | 250 nM | 1 nM | 9 nM | 38 nM | – | – | – | – | – |
| CN1CCN(c2ccc(C(=O)Nc3cc(-c4ccc(NC(=O)Nc5cccnc5)cc4)n[nH]3)cc2)CC1 | 300 nM | 22 nM | 74 nM | 190 nM | – | – | – | – | – |
| Cc1cc(NC(=O)Nc2ccc(-c3cc(NC(=O)c4ccc(N5CCN(C)CC5)cc4)[nH]n3)cc2)no1 | 120 nM | 3 nM | 6 nM | 31 nM | – | – | – | – | – |
| Cc1cc(NC(=O)Nc2ccc(-c3cc(NC(=O)c4ccc(N5CCN(C)CC5)cc4)[nH]n3)cc2Cl)no1 | 600 nM | 7 nM | 390 nM | > 1000 nM | – | – | – | – | – |
| Cc1nc(Nc2cc(-c3ccc(CNC(=O)Nc4cc(C(C)(C)C)on4)cc3)n[nH]2)cc(N2CCNCC2)n1 | 710 nM | 8 nM | 26 nM | 85 nM | – | – | – | – | – |
| Cc1nc(Nc2cc(-c3ccc(CNC(=O)Nc4cc(C)on4)cc3)n[nH]2)cc(N2CCN(CCO)CC2)n1 | 98 nM | 16 nM | 17 nM | 120 nM | – | – | – | – | – |

| Structure (SMILES) | IC50 (Aurora kinase A) | GI50 (MOLM-13) | IC50 [1] | IC50 [2] | Vd [3] | clearance [4] | AUC(0-inf) [5] | half-life [6] | bioavailability [7] |
| --- | --- | --- | --- | --- | --- | --- | --- | --- | --- |
| Cc1cnc(NC(=O)Nc2ccc(-c3cc(NC(=O)c4ccc(N5CCN(C)CC5)cc4)[nH]n3)cc2)s1 | 65 nM | 9 nM | 50 nM | 35 nM | – | – | – | – | – |
| O=C(NCc1ccc(-c2cc(NC(=O)c3ccc(OCCN4CCOCC4)cc3)[nH]n2)cc1)Nc1ccccc1 | 760 nM | 3 nM | 9 nM | 54 nM | – | – | – | – | – |
| Cc1cc(-c2cc(NC(=O)c3ccc(CN4CCN(C)CC4)cc3)[nH]n2)ccc1NC(=O)Nc1cc(C(C)(C)C)on1 | – | – | – | – | 10 L/kg | 11.3 mL/min/kg | 3020 ng·h/mL | 17 h | – |
| O=C(NCc1ccc(-c2cc(NC(=O)c3ccc(OCCN4CCOCC4)cc3)[nH]n2)cc1)Nc1ccc(F)cc1 | > 1000 nM | 5 nM | 66 nM | 130 nM | – | – | – | – | – |
| CC(C)(C)c1cc(NC(=O)Nc2ccc(-c3cc(NC(=O)c4ccc(OCCN5CCCC5)cc4)[nH]n3)cc2)no1 | 47 nM | 2 nM | 15 nM | 12 nM | – | – | – | – | – |
| Cc1nc(Nc2cc(-c3ccc(CNC(=O)Nc4cc(C)on4)cc3)n[nH]2)cc(N2CCN(C)CC2)n1 | 320 nM | 9 nM | 21 nM | 100 nM | – | – | – | – | – |
| CN1CCN(Cc2ccc(C(=O)Nc3cc(-c4ccc(CNC(=O)Nc5cc(C(C)(C)C)on5)cc4)n[nH]3)cc2)CC1 | > 1000 nM | 3 nM | 4 nM | 18 nM | 8 L/kg | 17.2 mL/min/kg | 2120 ng·h/mL | 11 h | – |
| CN1CCN(c2ccc(C(=O)Nc3cc(-c4cccc(NS(=O)(=O)c5ccccc5)c4)n[nH]3)cc2)CC1 | – | 21 nM | 11 nM | – | – | – | – | – | – |
| Cc1nc(Nc2cc(-c3ccc(NC(=O)Nc4ccccc4)cc3)n[nH]2)cc(N2CCN(C)CC2)n1 | 500 nM | 160 nM | 280 nM | 620 nM | – | – | – | – | – |
| Cc1nc(Nc2cc(-c3ccc(CNC(=O)Nc4cc(C(C)(C)C)on4)cc3)n[nH]2)cc(N2CCN(C)CC2)n1 | 120 nM | 3 nM | 35 nM | 12 nM | – | – | – | – | – |
| O=C(NCc1ccc(-c2cc(NC(=O)c3ccc(OCCN4CCCC4)cc3)[nH]n2)cc1)OCc1ccccc1 | – | 2 nM | – | – | – | – | – | – | – |
| Cc1cc(-c2cc(NC(=O)c3ccc(OCCN4CCOCC4)cc3)[nH]n2)ccc1NC(=O)Nc1cc(C(C)(C)C)on1 | 69 nM | 8 nM | 20 nM | 27 nM | 4.7 L/kg | 13.9 mL/min/kg | 2860 ng·h/mL | 5.3 h | 4% |
| CN1CCN(c2ccc(C(=O)Nc3cc(-c4ccc(NC(=O)Nc5ccccn5)cc4)n[nH]3)cc2)CC1 | 610 nM | 42 nM | 40 nM | 73 nM | – | – | – | – | – |
| CN1CCN(c2ccc(C(=O)Nc3cc(-c4ccc(NC(=O)Nc5cc(C(C)(C)C)on5)cc4)n[nH]3)cc2)CC1 | 53 nM | 5 nM | 30 nM | 12 nM | – | – | – | – | – |
| CC(C)(C)c1cc(NC(=O)Nc2ccc(-c3cc(NC(=O)c4ccc(OCCN5CCOCC5)cc4)[nH]n3)cc2)no1 | 160 nM | 2 nM | 19 nM | 22 nM | – | – | – | – | – |
